One series concerns hiPSC-CMs. Nature of the series: Conventional MEA, chronic exposure. The note with it: 0.1 μM. In kind it is cell-based, human.
The subject of a further series is mouse cardiomyocytes. On the set-up: method as in Lin et al. 2024. To be noted: ref Lin et al. 2024; cited from earlier work.
Series [1] relates to Engineered heart tissues derived from human iPSCs. On the set-up: method as in Arefin et al. 2023. To be noted: ref Arefin et al. 2023, cited from earlier work.
The next series has as its system rat cardiomyocytes. To be noted: ref Sag et al. 2011, Ikeda et al. 2019; cited from earlier work.
Series [2] relates to human iPSC-derived cardiomyocytes. The experiment in a line: PCA and MANOVA of beat parameters after chronic exposure. In kind it is cell-based. The note with it: 0.1 µM, relative to all DMSO time points. The method, then:
(§1) For mechanism-of-action classification and the cardiotoxicity assessment of doxorubicin, a one-way multivariate analysis of variance (MANOVA) was employed, using principal component (PC)1 and PC2 scores as dependent variables to evaluate significant differences between drug mechanism groups. Statistical significance was determined at P < 0.05.
PCA was conducted to integrate multiple parameter changes into a comprehensive index of cardiotoxicity. The PCA included 6 selected parameters: IBI, Amplitude, Amplitude STV, Area, Velocity, and Velocity STV (Table 7). The first 2 PCs accounted for a cumulative contribution of 69.4%. […] For statistical analysis of cardiotoxicity across time points, PCA plots were categorized into 15 groups based on concentration and exposure duration. MANOVA was performed to compare each group against the DMSO 0.5 h reference (Table 8). No significant differences were detected among DMSO time points.

Series [3] shares this test system. The experiment in a line: FPI with UHD-CMOS-MEA, chronic exposure up to 96 h. In kind it is cell-based. The procedure: Recordings were performed at a sampling rate of 2 kHz, with a 2-min recording duration per condition. Data acquisition was controlled via proprietary software (Sony Semiconductor Solutions), and all raw signals were stored for offline analysis. All experiments were conducted in a humidified environment at 37 °C with 5% CO2, ensuring physiological conditions during both drug exposure and recording.
Spikes from hiPSC-derived cardiomyocytes were initially detected at each electrode using a voltage threshold of ±100 µV via BinViewer software (SCREEN Holdings Co., Ltd, Japan). The resulting spike data were then processed using a custom MATLAB (MathWorks, Natick, MA) script to perform beat detection. Firing count histograms were generated using a bin size of 0.5 ms, and peak detection within these histograms identified the timing and propagation duration of beats across the electrode array. For each electrode, the maximum spike amplitude and its corresponding peak timing were calculated to generate heat maps of field potential amplitude and activation timing.
as §1
To validate the chronic cardiotoxicity assessment using CMOS-MEA measurements, FPI was performed following long-term exposure to doxorubicin.

The subject of a further series is monolayer hiPSC-CMs. The note with it: ref Maddah et al. 2020; cited from earlier work.
Where [4] appears, read: 0.1 μM, prolonged exposure (48 h).

Consider one compound from publication PMC12646587, “Advanced cardiotoxicity profiling using field potential imaging with UHD-CMOS-MEA in human iPSC-derived cardiomyocytes” (Toxicological Sciences, 2025).

Molecules are shown by their SMILES.

In the case of `COc1cccc2c1C(=O)c1c(O)c3c(c(O)c1C2=O)C[C@@](O)(C(=O)CO)C[C@@H]3O[C@H]1C[C@H](N)[C@H](O)[C@H](C)O1` [Doxorubicin], in the series with hiPSC-CMs, the “exposure time at which a reduction in spike amplitude began to be detected” value stood at 48 h. The “concentration giving impaired Ca^2+ handling and reduced contractility” value in the series with mouse cardiomyocytes is 1000 nM. For the same compound, the “effect on contractile force” value in series [1] (125 or 500 nM) is “no observable effects”. Moreover, the “concentration giving reduced contractile force” value in series [1] (after 48 h of exposure) was 1000 nM. The “concentrations giving Ca^2+ handling abnormalities, apoptosis and contractile dysfunction” value in the series with rat cardiomyocytes is “only at micromolar concentrations”. The “MANOVA of PCA groups vs DMSO” value in series [2] is given as “significant differences were observed after 24 h”. Besides, in series [3] (0.03 µM, after 24 h), the beat area entry is on record as “significant decreases” and the peak potential entry is listed as “significant decreases”. In addition, the beat rate result in series [3] (0.03 µM, chronic exposure) was “did not significantly alter”. Further, the “changes in conventional parameters such as beat rate and IBI” value in series [3] (0.1 µM) is “evident only after 72 h”. Moreover, the “exposure time at which a decline in conduction velocity was detected” value in series [3] (0.1 μM, CMOS-MEA) is listed as 24 h. Also, in series [3] (0.1 µM, beginning at 48 h), the beat area result was “reductions” and the peak potential entry is “reductions”. In addition, in series [3] (setting [4]), the conduction velocity result is on record as “decrease”; the “temporal variability metrics (CV and STV)” value is given as “increase”. Also, the “STV of peak potential” value in series [3] (0.1 µM, within 0.5 h) is given as “decreased”. Also, the “concentration at which cardiotoxicity was detected” value in series [3] (within 24 h, UHD-CMOS-MEA) worked out at 30 nM. For the same compound, the “concentration at which structural changes were detected” value in the series with monolayer hiPSC-CMs was “exceeding 0.3 μM”.
